Measurements from ChEMBL document CHEMBL1201862, “PubChem BioAssay data set” (2004).
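Interpolation was linear, between the two tested concentrations surrounding the appropriate level; five concentrations were tested over 48 hours in 96-well plates. GI50: concentration for 50% inhibition of growth.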 Calls of active or inactive are those of the source. Rule as the data show it: active = GI50 up to about 1.1 µM and inactive = higher.

How the values were obtained:
Test in all cases: inhibition of tumour cell growth, NCI panel, 48 h
[1] = system: UACC-257
[2] = system: 786-0
[3] = system: HCT-116
[4] = system: NCI-H23
[5] = system: M14
[6] = system: HOP-92
[7] = system: HOP-62
[8] = system: SK-MEL-5
[9] = system: ACHN
[10] = system: IGROV-1
[11] = system: OVCAR-3
[12] = system: EKVX
[13] = system: SNB-75
[14] = system: SW-620
[15] = system: TK-10

Measured: GI50

COC(=O)C(Cc1nc2ccccc2nc1O)C(NO)C(=O)Nc1c(Cl)cc([N+](=O)[O-])cc1Cl (stereo not given)
inactive: [1] 27.7 µM | [2] 40.6 µM | [3] 22.3 µM | [4] 22.4 µM | [5] 50.1 µM | [6] 5.56 µM | [7] 26 µM | [8] 18 µM | [9] 35.6 µM | [10] 40.8 µM | [11] 40.6 µM | [12] 27.7 µM

NC(=O)c1c2c(cc3c(=O)c4ccccc4[nH]c13)CCCC2
inactive: [1] > 100 µM | [13] 43.1 µM | [2] > 69.3 µM | [3] > 100 µM | [4] > 93.3 µM | [5] > 100 µM | [6] > 100 µM | [14] > 100 µM | [7] > 100 µM | [15] > 100 µM | [8] > 100 µM | [9] > 100 µM | [10] > 100 µM | [11] > 100 µM | [12] > 100 µM

O=C(CN(c1ccccc1)c1ccccc1)N1c2ccccc2C2C=CC=CC21 (stereo not given)
inactive: [1] 18.3 µM | [13] 18.1 µM | [2] 22.6 µM | [3] 13.8 µM | [4] 23.2 µM | [5] 25.6 µM | [14] 23.7 µM | [7] 20.1 µM | [15] 24.3 µM | [8] 15.6 µM | [9] 24 µM | [10] 21.3 µM | [11] 17.4 µM | [12] 24.3 µM

COc1ccc(/C=c2/sc3n(c2=O)NC2(CCCCC2)NN=3)cc1
inactive: [13] 92.7 µM | [2] > 100 µM | [3] > 100 µM | [4] > 100 µM | [5] > 100 µM | [6] > 100 µM | [14] > 100 µM | [15] > 100 µM | [8] > 100 µM | [10] > 100 µM | [11] > 100 µM | [12] > 100 µM

N#Cc1ccc(OCCSCCCCCCCCCCSCCOc2ccc(C#N)cc2)cc1
inactive: [1] 2.25 µM | [13] > 100 µM | [2] > 100 µM | [4] > 100 µM | [5] > 100 µM | [14] > 100 µM | [7] > 100 µM | [15] > 100 µM | [8] 3.03 µM | [9] > 100 µM | [10] > 100 µM | [11] > 100 µM | [12] > 100 µM

COC(=O)C1=CC2OC1(C)C1(CC1)C2=O (stereo not given)
inactive: [1] 16.1 µM | [13] 19.8 µM | [2] 17.2 µM | [3] 13.8 µM | [4] 22 µM | [5] 13.5 µM | [14] 14.7 µM | [7] > 100 µM | [15] > 10 µM | [8] > 10 µM | [9] 15.3 µM | [10] 17.9 µM | [11] 16.2 µM | [12] 15.2 µM

COC1(OC)CCCCC2c3cccc(OC(C)=O)c3C21OC(C)=O (stereo not given)
inactive: [1] > 100 µM | [13] > 100 µM | [2] > 100 µM | [3] 57.9 µM | [4] > 100 µM | [5] > 100 µM | [14] > 100 µM | [7] > 100 µM | [15] > 100 µM | [8] > 100 µM | [9] 78.9 µM | [10] > 100 µM | [11] 94 µM | [12] > 100 µM

C=CCO/N=C(\OC(=O)c1ccc([N+](=O)[O-])cc1)c1ccccc1
inactive: [13] > 100 µM | [2] > 100 µM | [4] > 100 µM | [5] > 100 µM | [6] > 100 µM | [14] > 100 µM | [7] > 100 µM | [15] > 100 µM | [8] > 100 µM | [9] > 100 µM | [10] > 100 µM | [11] > 100 µM | [12] > 100 µM

CC1(C)CC(=O)C(=[N+]=[N-])C(=O)C1
inactive: [1] > 100 µM | [13] > 100 µM | [2] > 100 µM | [3] > 100 µM | [4] > 100 µM | [5] > 100 µM | [6] > 100 µM | [14] > 100 µM | [7] > 100 µM | [15] > 100 µM | [9] > 100 µM | [10] > 100 µM | [11] > 100 µM | [12] > 100 µM

COC(=O)C1C(=O)N(CCc2c[nH]c3ccccc23)C[C@@H]2CCC(=O)C[C@H]12 (stereo not given in full)
inactive: [1] > 100 µM | [13] > 100 µM | [2] > 100 µM | [3] > 100 µM | [4] > 100 µM | [5] > 100 µM | [6] > 100 µM | [14] > 100 µM | [7] > 100 µM | [15] > 100 µM | [8] > 100 µM | [10] > 100 µM | [11] > 100 µM | [12] > 100 µM
